What was measured:
[1] = biological target: T1, AsAKS2 (BAHD5, 37058_t) (Alstonia scholaris, UniProt A0A9E7LUL3); assay: LCMS detection of akuammiline; assay type: biochemical; settings: co-substrate rhazimol
T1 sequence (A0A9E7LUL3 1-450): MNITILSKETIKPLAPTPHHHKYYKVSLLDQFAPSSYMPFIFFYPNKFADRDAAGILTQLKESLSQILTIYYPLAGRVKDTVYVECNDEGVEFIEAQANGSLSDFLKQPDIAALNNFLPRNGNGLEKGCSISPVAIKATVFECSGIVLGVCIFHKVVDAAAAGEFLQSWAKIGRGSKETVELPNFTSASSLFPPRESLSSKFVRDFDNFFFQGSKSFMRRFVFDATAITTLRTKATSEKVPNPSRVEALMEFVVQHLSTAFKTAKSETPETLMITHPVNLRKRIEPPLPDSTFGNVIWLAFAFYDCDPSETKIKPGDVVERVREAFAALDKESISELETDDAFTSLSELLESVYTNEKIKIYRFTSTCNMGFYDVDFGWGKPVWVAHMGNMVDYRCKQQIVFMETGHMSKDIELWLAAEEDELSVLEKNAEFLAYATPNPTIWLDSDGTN

[2] = biological target: T2, AsAKS1 (BAHD3, 43565_t) (Alstonia scholaris, UniProt A0A9E7S5E3); assay: LCMS detection of akuammiline; assay type: biochemical; settings: co-substrate rhazimol
T2 sequence (A0A9E7S5E3 1-419): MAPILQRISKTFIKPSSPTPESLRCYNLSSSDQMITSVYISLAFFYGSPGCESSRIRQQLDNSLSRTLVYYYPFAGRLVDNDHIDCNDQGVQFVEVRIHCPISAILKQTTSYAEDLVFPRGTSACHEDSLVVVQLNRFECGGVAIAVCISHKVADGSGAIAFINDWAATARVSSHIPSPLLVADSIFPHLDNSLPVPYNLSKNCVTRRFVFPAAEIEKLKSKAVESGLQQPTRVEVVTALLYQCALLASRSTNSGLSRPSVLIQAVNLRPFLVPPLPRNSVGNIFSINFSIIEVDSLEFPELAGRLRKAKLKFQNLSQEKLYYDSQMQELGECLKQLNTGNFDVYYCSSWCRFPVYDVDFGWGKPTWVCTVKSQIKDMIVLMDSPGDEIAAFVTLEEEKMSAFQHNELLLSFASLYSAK

Structure (SMILES): CC(=O)SCCNC(=O)CCNC(=O)[C@H](O)C(C)(C)COP(=O)(O)OP(=O)(O)OC[C@H]1O[C@@H](n2cnc3c(N)ncnc32)[C@H](O)[C@@H]1OP(=O)(O)O [acetyl-CoA]
- LCMS detection of akuammiline [1]: The BAHD candidates were assayed by incubation with rhazimol and acetyl-CoA
- LCMS detection of akuammiline [2]: The BAHD candidates were assayed by incubation with rhazimol and acetyl-CoA
